Results from PMC10582582 (Saudi Pharmaceutical Journal : SPJ, 2023).

system: WI-38; assay: In vitro cytotoxicity against normal cell line WI-38; type: cell-based; details: Homo sapiens, WI-38, read-out: IC50 WI38

Row | Structure (SMILES) | IC50
1 | CCN1CCC2(CC1)C/C(=N\N=C\c1ccc(N(C)C)cc1)c1ccccc1O2 [Compound 4c, 4-((E)-{(E)-[1′-Ethylspiro(chroman-2,4′-piperidin)-4-ylidene]hydrazono}methyl)-N,N-dimethylaniline] | 55.3 ± 3.3 µM
2 | CN1CCC2(CC1)C/C(=N\N=C\c1ccc(Cl)cc1)c1ccccc1O2 [Compound 4a, (E)-4-[(E)-(4-Chlorobenzylidene)hydrazono]-1′-methylspiro(chroman-2,4′-piperidine)] | 75.7 ± 4.3 µM
3 | CN1CCC2(CC1)C/C(=N\N=C\c1ccc(N(C)C)cc1)c1ccccc1O2 [Compound 4b, N,N-Dimethyl-4-((E)-{(E)-[1′-methylspiro(chroman-2,4′-piperidin)-4-ylidene]hydrazono}methyl)aniline] | 60.4 ± 3.7 µM
4 | CN(C)C/C=C/C(=O)Nc1cc2c(Nc3ccc(F)c(Cl)c3)ncnc2cc1O[C@H]1CCOC1 [Afatinib, reference compound] | 49.5 ± 2.5 µM
5 | CN1CCC2(CC1)C/C(=N\N=C\c1ccc(O)cc1)c1ccccc1O2 [Compound 4d, 4-((E)-{(E)-[1′-Methylspiro(chroman-2,4′-piperidin)-4-ylidene]hydrazono}methyl)phenol] | 33.3 ± 2.3 µM
